This note sets out measurements from patent publication EP2065039A1, “Selective inhibition of Polo-like kinase 1” (Max-Planck-Gesellschaft zur Förderung der Wissenschaften …, priority 2007, dated 2009).

Where two headings read alike, the source gives them in different places.

In one series the target is T1, Plk2 PBD (Homo sapiens, UniProt Q9NYY3).
T1 construct: human Plk2 amino acids 355-685; made in house; host or cells: E. coli Rosetta BL21 DE3
T1 sequence (Q9NYY3 355-685): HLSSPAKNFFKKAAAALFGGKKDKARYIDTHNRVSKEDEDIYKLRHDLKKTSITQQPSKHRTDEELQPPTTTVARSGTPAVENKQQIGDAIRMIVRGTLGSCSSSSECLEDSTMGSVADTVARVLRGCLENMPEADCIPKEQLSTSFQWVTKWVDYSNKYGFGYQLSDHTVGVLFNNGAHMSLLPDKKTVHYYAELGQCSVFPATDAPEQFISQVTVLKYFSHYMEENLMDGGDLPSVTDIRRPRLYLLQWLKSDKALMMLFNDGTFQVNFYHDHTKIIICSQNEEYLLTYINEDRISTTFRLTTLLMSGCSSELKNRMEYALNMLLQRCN
The experiment in a line: Fluorescence polarization specificity assay, Plk2 PBD. It is filed as binding. To be noted: Plk2 PBD 130 nM; incubation with inhibitor 1 hr at 22 °C prior to addition of fluorophore-labeled peptide; read-out: apparent IC50. From the text: (§1) DNA sequences coding for human Plk1 amino acids 326-603, human Plk2 amino acids 355-685, and human Plk3 amino acids 335-646 comprising the respective polo-box domains were amplified by PCR from plasmid DNA (Plk1) or placenta cDNA (Plk2, Plk3) and cloned into a modified pET28a (Plk1) or a modified pQE70 vector (Plk2 and Plk3). Similarly, nucleotides coding for the […] (FHA) of the kinase Chk2 (amino acids 1-225) and the WW domain of the proline isomerase Pin1 (amino acids 1-162) were amplified by PCR from HeLa S3 and placenta cDNA, respectively, and cloned into a modified pET28a vector. The design of expression plasmids coding for STAT1, STAT3, STATSb, and Lck has been described before and belongs to the knowledge of a skilled person. […] Wild-type and mutant PBD sequences were cloned into a modified pCS2 mammalian expression vector carrying a myc-tag. […]
(§2) Diverse Chemical libraries consisting of 22461 small molecules were tested in a fluorescence polarization assay which analyzes binding between 5-carboxyfluorescein-GPMQST(P03H2)PLNG-OH (final concentration: 10 nM) and the Plk1 polo-box domain (final concentration: 65 nM). […]

For another series, the target named is T2, Chk2 FHA domain (Homo sapiens, UniProt O96017).
T2 construct: kinase Chk2 (amino acids 1-225); made in house; host or cells: E. coli Rosetta BL21 DE3
The experiment in a line: Fluorescence polarization specificity assay, Chk2 FHA domain. To be noted: Chk2 240 nM; incubation with inhibitor 1 hr at 22 °C prior to addition of fluorophore-labeled peptide; read-out: apparent IC50. The series is classed as binding.
Source text: as §1, §2

In a further series the target is T3, Pin1 WW domain (Homo sapiens, UniProt Q13526).
T3 construct: proline isomerase Pin1 (amino acids 1-162); made in house; host or cells: E. coli Rosetta BL21 DE3
The experiment in a line: Fluorescence polarization specificity assay, Pin1 WW domain. The settings on record: Pin1 1000 nM; incubation with inhibitor 1 hr at 22 °C prior to addition of fluorophore-labeled peptide; read-out: apparent IC50. The series is classed as binding.
Source text: as §1, §2

Another series addresses STAT1 SH2 domain (Homo sapiens, UniProt P42224). The experiment in a line: Fluorescence polarization specificity assay, STAT1 SH2 domain. It is filed as binding.
Source text: as §1, §2

In another series the target is T4, STAT3 SH2 domain (Homo sapiens, UniProt P40763).
T4 construct: made in house
The experiment in a line: Fluorescence polarization specificity assay, STAT3 SH2 domain. The series is classed as binding. To be noted: STAT3 160 nM; incubation with inhibitor 1 hr at 22 °C prior to addition of fluorophore-labeled peptide; read-out: apparent IC50.
Source text: as §1, §2

Another series concerns the target T5, STAT5 SH2 domain (Homo sapiens, UniProt P51692).
T5 construct: made in house
T5 sequence (P51692 136-703 limits assumed): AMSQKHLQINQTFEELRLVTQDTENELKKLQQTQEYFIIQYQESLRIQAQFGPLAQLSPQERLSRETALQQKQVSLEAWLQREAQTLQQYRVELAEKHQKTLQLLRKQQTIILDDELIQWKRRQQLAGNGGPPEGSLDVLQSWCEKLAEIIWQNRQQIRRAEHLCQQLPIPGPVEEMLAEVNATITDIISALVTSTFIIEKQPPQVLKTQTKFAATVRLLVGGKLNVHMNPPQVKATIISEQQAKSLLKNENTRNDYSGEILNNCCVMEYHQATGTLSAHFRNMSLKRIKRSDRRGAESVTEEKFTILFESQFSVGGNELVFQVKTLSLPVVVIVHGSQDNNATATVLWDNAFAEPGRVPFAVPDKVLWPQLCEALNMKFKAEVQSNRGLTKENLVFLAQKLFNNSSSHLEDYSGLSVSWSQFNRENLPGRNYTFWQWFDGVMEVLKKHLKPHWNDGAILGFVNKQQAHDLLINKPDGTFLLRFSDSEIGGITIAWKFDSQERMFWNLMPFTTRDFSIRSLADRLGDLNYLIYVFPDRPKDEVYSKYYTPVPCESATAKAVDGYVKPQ
The experiment in a line: Fluorescence polarization specificity assay, STAT5 SH2 domain. It is filed as binding. The settings on record: STAT5b 110 nM, incubation with inhibitor 1 hr at 22 °C prior to addition of fluorophore-labeled peptide, read-out: apparent IC50.
Source text: as §1, §2

The target in a further series is Lck SH2 domain (Homo sapiens, UniProt P06239). The experiment in a line: Fluorescence polarization specificity assay, Lck SH2 domain. It is filed as binding.
Source text: as §1, §2

Another series concerns HeLa cells. The experiment in a line: Mitotic arrest / cell cycle analysis in synchronized HeLa cells (Western blot, flow cytometry). To be noted: for mitotic arrest in HeLa cells: HeLa cells synchronized by thymidine block, released into medium containing compound, Figs. 5A-5C. The series is classed as cell-based. The text has this:
Figure 1A/B Comparative IC50 inhibition curves with preferred compounds [1] (poloxin) and [14] (thymoquinone, TQ) versus Plk1, Plk2, Plk3, Chk2, Pin1, Stat1, Stat3, Stat5 and Lck. Figure 2 Cellular effects of poloxin and thymoquinone (TQ): Mitotic indices of HeLa cells 14 hrs after release from G1/S block. Figure 3 Distribution of mitotic phases and chromosome congression defects within the metaphase population in the presence of poloxin and thymoquinone (TQ). […]. […] Unsynchronized cells (control), cells synchronized with nocodazol (Noc) or thymidine (Thym), or cells released from thymidine block in the medium containing only DMSO (DMSO) were analyzed for comparison. Figure 5B Analysis of cell cycle distribution by fluorescence-activated flow cytometry. Cells were treated as in 5A. A representative example is shown. Figure 5C Quantification of the cell cycle analysis as shown in 5B (n=3). […]. […] Figure 6B Overexpression of PBD wild-type (wt), but not of the triple mutant PBD FAA, induces mitotic arrest in HeLa cells.
HeLa cells were maintained in Dulbecco's Modified Eagle-Medium (High Glucose) supplemented with 2 mM L-glutamine, 1 mM sodium pyruvate, 10% foetal calf serum, 100 U/mL penicillin, and 100 µg/mL streptomycin (GIBCO and PAA). For the Western blot analysis Fig. 5A, HeLa cells were arrested at the G1/S boundary by thymidine block, and released into thymidine-free medium containing the indicated concentration of compounds at a final DMSO concentration of 0.5%. After 7 hours, medium was replaced with fresh medium which also contained the indicated concentration of compound. […]
For the determination of mitotic indices shown in Fig. 6A, the number of mitotic cells within a population of 200-300 cells was counted. For the determination of the mitotic phase distribution shown in Fig. 6B, populations of approximately 50 mitotic cells were analyzed. […] The DNA content of 30000 cells was determined with a FACScan flow cytometer (BD Biosciences). The data were analyzed with cell cycle analysis Software MODFIT LT 2.0 (Verity Software House). […]

Another series deals with T6, Plk3 PBD (Homo sapiens, UniProt Q9H4B4).
T6 construct: human Plk3 amino acids 335-646; made in house; host or cells: E. coli Rosetta BL21 DE3
T6 sequence (Q9H4B4 335-646): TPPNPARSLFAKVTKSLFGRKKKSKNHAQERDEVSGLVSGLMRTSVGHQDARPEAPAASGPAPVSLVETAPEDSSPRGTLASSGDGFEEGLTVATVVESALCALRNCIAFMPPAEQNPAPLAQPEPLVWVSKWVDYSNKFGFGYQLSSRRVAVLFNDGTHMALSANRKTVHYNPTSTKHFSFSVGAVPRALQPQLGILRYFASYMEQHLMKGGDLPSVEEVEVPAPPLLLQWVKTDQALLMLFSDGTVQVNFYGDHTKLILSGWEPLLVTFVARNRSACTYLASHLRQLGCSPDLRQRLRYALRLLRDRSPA
The experiment in a line: Fluorescence polarization specificity assay, Plk3 PBD. The settings on record: Plk3 PBD 1875 nM; incubation with inhibitor 1 hr at 22 °C prior to addition of fluorophore-labeled peptide; read-out: apparent IC50. The series is classed as binding.

STAT1 SH2 domain, sequence (P42224 132-713): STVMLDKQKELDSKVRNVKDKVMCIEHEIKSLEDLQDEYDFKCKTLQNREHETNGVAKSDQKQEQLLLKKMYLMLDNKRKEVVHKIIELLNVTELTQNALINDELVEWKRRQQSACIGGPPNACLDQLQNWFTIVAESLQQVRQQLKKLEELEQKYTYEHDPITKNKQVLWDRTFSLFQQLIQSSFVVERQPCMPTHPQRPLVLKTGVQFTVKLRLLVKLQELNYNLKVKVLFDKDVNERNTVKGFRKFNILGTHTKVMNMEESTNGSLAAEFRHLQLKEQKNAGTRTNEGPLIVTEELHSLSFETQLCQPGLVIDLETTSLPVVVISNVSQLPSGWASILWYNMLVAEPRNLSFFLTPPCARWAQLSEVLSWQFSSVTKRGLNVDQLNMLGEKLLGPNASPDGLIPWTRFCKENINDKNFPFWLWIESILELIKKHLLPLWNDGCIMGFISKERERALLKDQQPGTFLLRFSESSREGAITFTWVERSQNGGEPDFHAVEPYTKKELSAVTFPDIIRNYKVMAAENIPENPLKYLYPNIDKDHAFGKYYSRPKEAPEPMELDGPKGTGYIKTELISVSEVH
T2 sequence (O96017 1-225): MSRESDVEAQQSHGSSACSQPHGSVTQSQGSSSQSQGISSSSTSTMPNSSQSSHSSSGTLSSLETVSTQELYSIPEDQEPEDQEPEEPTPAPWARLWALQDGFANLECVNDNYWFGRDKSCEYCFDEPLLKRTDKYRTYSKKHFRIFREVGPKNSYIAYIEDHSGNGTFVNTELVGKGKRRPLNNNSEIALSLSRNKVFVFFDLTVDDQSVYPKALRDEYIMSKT
Lck SH2 domain, sequence (P06239 127-224): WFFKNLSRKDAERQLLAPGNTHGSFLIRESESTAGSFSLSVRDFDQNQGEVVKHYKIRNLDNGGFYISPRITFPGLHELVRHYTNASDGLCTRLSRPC
T4 sequence (P40763 127-722 limits assumed): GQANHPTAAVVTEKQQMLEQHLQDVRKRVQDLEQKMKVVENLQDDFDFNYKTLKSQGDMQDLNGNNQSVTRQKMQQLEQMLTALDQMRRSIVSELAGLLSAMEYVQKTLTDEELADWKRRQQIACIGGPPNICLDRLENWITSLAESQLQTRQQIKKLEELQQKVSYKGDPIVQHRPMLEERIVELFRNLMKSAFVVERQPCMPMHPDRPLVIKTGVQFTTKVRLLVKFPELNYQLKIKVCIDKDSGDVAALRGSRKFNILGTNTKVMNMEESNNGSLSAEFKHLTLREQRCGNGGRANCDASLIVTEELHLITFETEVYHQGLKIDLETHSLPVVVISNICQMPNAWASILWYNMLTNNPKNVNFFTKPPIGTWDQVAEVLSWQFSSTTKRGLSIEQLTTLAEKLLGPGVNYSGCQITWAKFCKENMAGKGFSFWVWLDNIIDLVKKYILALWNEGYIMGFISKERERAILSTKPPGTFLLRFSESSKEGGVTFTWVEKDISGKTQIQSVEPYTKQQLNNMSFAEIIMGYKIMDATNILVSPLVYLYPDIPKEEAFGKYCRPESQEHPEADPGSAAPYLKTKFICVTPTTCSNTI
T3 sequence (Q13526 1-162): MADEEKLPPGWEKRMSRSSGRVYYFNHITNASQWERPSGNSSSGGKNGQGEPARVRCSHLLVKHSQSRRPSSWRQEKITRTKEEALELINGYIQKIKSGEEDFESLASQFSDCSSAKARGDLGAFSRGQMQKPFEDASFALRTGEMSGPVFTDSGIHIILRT
Method for Plk3 PBD: Purified proteins were aliquoted, snap-frozen in liquid nitrogen, and stored at -80°C before use. Binding curve experiments were done for each protein batch before inhibition experiments were started.
The final concentration of buffer components used was: 10 mM Tris, pH 8.0, 50 mM NaCl, 1 mM EDTA, 0.1 % Nonidet P-40, and 10% DMSO. The Plk1 PBD was incubated with compounds for 60 min prior to addition of the fluoropeptide. Screening was performed at room temperature. The following fluorophore-labeled peptides were used for specificity assays: • Plk2: 5-carboxyfluorescein-GPMQTST(PO3H2)PKNG-OH; • Plk3: 5-carboxyfluorescein-GPLATST(PO3H2)PKNG-OH; • Chk2: 5-carboxyfluorescein-GHFDT(PO3H2)YLIRR-OH; • Pin 1: 5-carboxyfluorescein-GWFYS(PO3H2)PRLKK-OH; • STAT1: 5-carboxyfluorescein-GY(PO3H2)DKPHVL-OH; • STAT3: 5-carboxyfluorescein-GY(PO3H2)LPQTV-NH2; • STAT5b: 5-carboxyfluorescein-GY(PO3H2)L VLDKW-OH;Lck:5-carboxyfluorescein-GY(P03H2)EEIP-OH.
Fluorescein-labeled peptides were >95% pure. […] Inhibition curves were fitted using SigmaPlot (SPSS Science Software GmbH).

Take `CC1=CC(=O)C(C(C)C)=CC1=NOC(=O)c1ccccc1C` [Poloxin]: the concentration for half-maximal inhibition (IC50) at Plk2 PBD was 18.7 ± 1.8 µM; at Chk2 FHA domain, over 330 µM; at Pin1 WW domain it was over 215 µM; on STAT1 SH2 domain (STAT1 120 nM, incubation with inhibitor 1 hr at 22 °C prior to addition of fluorophore-labeled peptide, read-out: apparent IC50), over 555 µM; on STAT3 SH2 domain, over 285 µM; at STAT5 SH2 domain (value in mM), over 1 mM. Besides, the IC50 at Lck SH2 domain (Lck 40 nM, incubation with inhibitor 1 hr at 22 °C prior to addition of fluorophore-labeled peptide, read-out: apparent IC50) was over 5000 µM. Moreover, the “mitotic arrest in HeLa cells” value in the series on HeLa cells is “induce mitotic arrest”.
With `CC1=CC(=O)C(C(C)C)=CC1=O` [Thymoquinone, thymoquinone], the IC50 on Plk2 PBD is 1.9 ± 0.1 µM; on Plk3 PBD, 22.4 ± 0.8 µM; on Chk2 FHA domain, 3.9 ± 0.6 µM; on Pin1 WW domain it was 20.4 ± 0.9 µM; on STAT1 SH2 domain it was over 5000 µM; at STAT3 SH2 domain, 10.9 ± 0.2 µM. The IC50 is over 0.24 mM at STAT5 SH2 domain and over 5000 µM at Lck SH2 domain. In addition, the “toxic side effects in cell cycle analysis” value in the series with HeLa cells (25 µM, HeLa cells, flow cytometry, quantification of cell cycle profile unfeasible (Fig. 5C)) is “toxic side effects”. In addition, in the series on HeLa cells, the “mitotic arrest in HeLa cells” value is “induce mitotic arrest”.
